One block for each molecule: values may come before it.
How the values were obtained:
[1] = The compound was tested for binding affinity in a buffer containing 500 uM-3 mM beta,gamma-methyleneadenosine 5'-triphosphate(AMP-PCP) in porcine sarcoplasmic reticulum
[2] = The compound was tested for binding affinity in the absence of beta, gamma- methyleneadenosine 5'-triphosphate(AMP-PCP) in porcine sarcoplasmic reticulum
[3] = The compound was tested for binding affinity against porcine sarcoplasmic reticulum(SR) membrane
[4] = Binding affinity against porcine sarcoplasmic reticulum
[5] = The compound was tested for binding affinity against porcine sarcoplasmic reticulum
[6] = The compound was tested for binding affinity against porcine sarcoplasmic reticulum(SR) membrane in the absence or presence of azumolene
[7] = The compound was tested for binding affinity against porcine sarcoplasmic reticulum(SR) membrane in the absence or presence of atropine
[8] = The compound was tested for binding affinity against porcine sarcoplasmic reticulum(SR) membrane in the absence or presence of dantrolene from porcine sarcoplasmic reticulum

Kd [1]: 210 nM
Kd [2]: 275 nM
Ki [3]: 1500 nM
Compound: [3H]/C(=N\N1CC(=O)[N-]C1=O)c1ccc(-c2ccc([N+](=O)[O-])cc2)o1.[Na+]

Kd [4]: 300 nM
Compound: O=C1CN(/N=C/c2ccc(-c3ccc([N+](=O)[O-])cc3)o2)C(=O)N1 [DANTROLENE SODIUM]

Ki [5]: 175 nM
Ki [6]: 100000 nM
Ki [7]: 100000 nM
Ki [8]: 20000 nM
Compound: [3H]/C(=N\N1CC(=O)[N-]C1=O)c1ccc(-c2ccc(N=[N+]=[N-])cc2)o1.[Na+] [[3H]-AZIDODANTROLINE]

Source: ChEMBL document CHEMBL1132159, “[3H]Azidodantrolene: synthesis and use in identification of a putative skeletal muscle dantrolene binding site in sarcoplasmic reticulum” (J Med Chem, 1999)
